Reference: patent US9526766B2, “Potentiation of antibiotic treatment with a protein-lipid complex” (priority 2012, dated 2016)
Values after ≈ are worked out from the molar mass of the structure shown. Like-named read-outs stand apart in the source and are kept apart here.

How the values were obtained:
NRS 123 Staphylococci = experiment: Membrane potential, DiBAC4(3) fluorescence; format: cell-based, Staphylococcus aureus; conditions: Ruthenium Red, Amiloride
Procedure: Assessing membrane potential. Staphylococci grown to late log phase in TSB were pelleted by centrifugation at 2,400×g for 10 minutes and washed twice by resuspension in PBS. The bacterial pellet was resuspended in PBS to half of the original volume and energized with 50 mM glucose for 15 minutes at 37° C. To measure membrane potential of the staphylococcal membrane, 500 nM DiBAC4(3) (bis-(1,3-dibutylbarbituric acid) trimethine oxonol; Molecular Probes, Eugene, Oreg., USA) were added. […] The plate was then placed immediately into a pre-warmed (37° C.) Synergy 2 Multi-Mode Microplate Reader (BioTek) where fluorescence readings from DiBAC4(3) (485/20 nm excitation, 528/20 nm emission) were taken every minute for one hour. The difference in fluorescence intensity between the untreated control and the ALAFAC-treated sample was calculated for the “no inhibitor” samples and for the “inhibitor” samples using the values after 60 minutes. The fluorescence intensity difference for the “inhibitor” samples was then expressed as fold change of the intensity compared with the ALAFAC alone (“no inhibitor”) sample, providing the degree of depolarization compared to the “ALAFAC alone” sample.

NRS 384 Staphylococci = experiment: Intracellular pH measurement (BCECF-AM); format: cell-based, Staphylococcus aureus; conditions: ALAFAC 100 μg/mL (6 μM), RuR 30 μM, Amiloride 1 mM
Text: Intracellular pH measurement. A reported protocol for intracellular pH (pHi) measurement was modified and optimized for S. aureus by testing the effect of various dye concentrations and staining times on the measured fluorescence of S. aureus isolate NRS 384 grown to mid-log phase. Cell samples were subjected to increasing concentrations of the membrane-permeant acetoxymehtyl (AM) ester derivative of the dual-excitation ratiometric pH indicator dye BCECF (2′,7′-bis-(2-carboxyethyl)-5-(and-6)-carboxyfluorescein), for 30 minutes at 30° C. Fluorescence was measured as a ratio of fluorescence at 530 nm with dual wavelength excitation at 490 and 440 nm and calibration curves were established for each independent experiment. After testing a number of loading concentrations we observed that the fluorescence ratios remains generally constant when concentrations above 20 μM was used. Therefore 25 μM BCECF-AM was used for all experiments. The optimized staining time, 30 minutes, was determined using the same criteria and was used for all experiments. After loading, the cells were washed twice in PBS by centrifugation and the resulting pellet was resuspended in PBS to the original volume and ALAFAC and ALAFAC/antibiotic combinations were added. CCCP was added as a positive control. CCCP is a lipophilic weak acid that is soluble in the lipid domain of the membrane in both the protonated and deprotonated form. This allows it to act as a protonophore causing an influx of H^+ into the cytoplasm, dissipating both the electrical potential and the H^+ gradient across the inner membrane. For each experiment calibration was performed where cells were resuspended in high [K^+] buffers at different pH values ranging from 6.5 to 8.0.

Staphylococcus aureus [1] = experiment: MIC by broth microdilution, antibiotics with and without ALAFAC; format: cell-based; conditions: for MIC: Staphylococcus aureus
Procedure: (§1) Methodology: Minimal inhibitory concentrations (MICs) were determined in 96-well microtiter plates using the microdilution method according to approved standards of the CLSI except that Todd-Hewitt medium supplemented with 0.5% yeast extract, which yields reproducible MIC results was used as the test medium for S. pneumoniae. For the remaining species Mueller-Hinton medium was used as indicated by the CLSI standard. Each well contained two-fold dilutions of antibiotic, was seeded with a final bacterial concentration of 10^5 CFU/mL, and was incubated for 18 h at 37° C. in a Synergy II microplate reader (Biotek, Winooski, Vt.) where the OD600 was recorded every 5 minutes to monitor bacterial growth. The MIC was defined as the lowest concentration of antimicrobial agent solution at which no increase in OD600 was detected.
In vitro susceptibility tests. Minimal inhibitory concentrations (MICs) were determined in 96-well microtiter plates using the microdilution method according to approved standards of the CLSI as described previously. However, rather than Mueller-Hinton broth, Tryptic soy broth (TSB) was used for susceptibility testing as it is the common media used for Staphylococcal growth, and as it has shown more consistent results for a variety of antimicrobials when tested against Staphylococci. […] A two-fold dilution series of antibiotics in triplicate and in the presence or absence of ALAFAC was prepared in 96 well microtiter plates, and each well was seeded with a final bacterial concentration of 10^5 CFU/mL, and was incubated for 24 h at 37° C. in a Synergy 2 microplate reader (Biotek, Winooski, Vt.) where the Optical Density at 600 nm (OD600) was recorded every 5 minutes to monitor bacterial growth. The MIC was defined as the lowest concentration of antimicrobial agent solution where no increase in OD600 was detected.

Streptococcus pneumoniae [2] = experiment: Short-time kill assay on planktonic cultures; format: cell-based; conditions: for Minimum antibiotic concentration for bactericidal (>3 log10) activity, planktonic: within 4-6 hours, antibiotic alone; for Bactericidal activity (FIG. 1): 1 hour at 37° C., fatty acids: concentration required to kill versus that associated with the ALAFAC-complex
Procedure: Methodology: In late logarithmic growth phase, the bacteria were harvested by centrifugation at 12,000×g for 10 minutes and resuspended in phosphate-buffered saline (PBS; […], […], […], pH 7.4). Appropriate dilutions of the bacteria were suspended in PBS and treated with indicated concentrations of ALAFAC and/or antibiotics for various times. The effect on bacterial viability was assessed by plating serial dilutions of bacterial sample on tryptic soy agar plates containing 5% sheep blood (viable counts) and determining viable colony forming units after overnight growth at 37° C.
Short-time kill assays. In late logarithmic growth phase, the bacteria were harvested by centrifugation at 12,000×g for 10 minutes and resuspended in phosphate-buffered saline (PBS; 30 mM Na2HPO4, 10 mM KH2PO4, […], pH 7.4). Appropriate concentrations of the bacteria (around 10^8 colony forming units per ml) were suspended in PBS and treated with indicated concentrations of ALAFAC and/or antibiotics for various times. The effect on bacterial viability was assessed by plating serial dilutions of bacterial sample on tryptic soy agar plates containing 5% sheep blood (viable counts) and determining viable CFUs after overnight growth at 37° C.

Streptococcus pneumoniae [3] = experiment: MIC by broth microdilution, antibiotics with and without ALAFAC; format: cell-based; conditions: Streptococcus pneumoniae, agent alone, read-out: MIC
Procedure: as §1
In vitro susceptibility tests. Minimal inhibitory concentrations (MICs) were determined in 96-well microtiter plates using the microdilution method according to approved standards of the CLSI except that Todd-Hewitt medium supplemented with 0.5% yeast extract, which yields reproducible MIC results was used as the test medium for S. pneumoniae. MICs for A. baumanni, and M. catarrhalis were determined in MH media. Two-fold dilutions of a starting antibiotic concentration was added in triplicate into microtiter plate wells (in 96-well plates), were seeded with a final bacterial concentration of ˜10^5 colony forming units (CFU)/mL, and was incubated for 18 h in ambient air at 37° C. in a Synergy II microplate reader (Biotek, Winooski, Vt.) where the OD600 was recorded every 5 minutes to monitor bacterial growth. The MIC was defined as the lowest concentration of antimicrobial agent solution at which no increase in OD600 was detected.

[4] = tested on: Streptococcus pneumoniae biofilms; experiment: Static biofilm model, viable counts; format: cell-based; conditions: for Minimum antibiotic concentration for bactericidal (>3 log10) activity on biofilms: within 4-6 hours, antibiotic alone
Procedure: Methodology: Pneumococci were grown statically in CDM and S. aureus were grown in trypic soy medium to mid-logarithmic phase (OD600=0.5), washed, and resuspended in fresh pre-warmed medium to a density of 2×10^4 CFU in 500 μl volume, and suspensions were used to seed sterile round glass coverslips in the bottom of polystyrene 24-well plates with or without a substratum of confluent H292 epithelial cells. Biofilms were cultured at 34° C. in 5% CO2 for indicated times with change of culture media every 12 hours and to assess biomass and antibiotic resistance by viable counts (as described).
Biofilms were then washed in PBS and detached by scraping the surface in the presence of 100 μL PBS followed by a rinse with 100 μL PBS. Collected cells were sonicated in a sonication water bath for 2 s followed by vortexing twice for 20 seconds at high speed and the dispersed biofilm cells were used to determine viable CFUs per ml from diluted samples plated and grown on blood agar.
Static Biofilm Model. Pneumococci were grown in CDM to mid-logarithmic phase (OD600=0.5), washed, and resuspended in fresh pre-warmed medium to a density of 2×10^4 CFUs in 500 μl volume, and suspensions were used to seed sterile round glass coverslips in the bottom of polystyrene 24-well plates with a substratum of confluent H292 epithelial cells as described. Biofilms were cultured at 34° C. in 5% CO2 for indicated times with change of culture media every 12 hours and used for SEM studies or to assess biomass and antibiotic resistance by viable plate counts.
Biofilms were then washed in PBS, dispersed by sonication, and collected by pipetting in 100 μL PBS followed by a rinse with 100 μL PBS. Collected cells were then vortexed twice for 20 seconds at high speed and the dispersed biofilm cells were used to determine viable CFUs per ml from diluted samples plated and grown on blood agar. Results are reported as the total number of CFUs per biofilm.

Staphylococcus aureus [5] = experiment: Minimal bactericidal concentration (MBC) from MIC plates; format: cell-based; conditions: Staphylococcus aureus
Text: The MBC was defined as the lowest concentration of antimicrobials yielding colony counts <0.1% (3 log10 reduction) of the initial inoculum (as determined by colony counts from the growth control well immediately after inoculation) as described.

[6] = tested on: Staphylococcus aureus biofilms; experiment: Static biofilm model, viable counts; format: cell-based; conditions: NRS 1 (VISA) and NRS 384 (VSSA) biofilms; 24 hours; vancomycin 32 μg/mL (21 μM) alone or with ALAFAC
Procedure: Static Biofilm Model. Staphylococci were grown in TSB to mid-logarithmic phase (OD600=0.5), washed, and resuspended in fresh pre-warmed medium to a density of 2×10^4 CFU in 500 μl volume, and suspensions were used to seed polystyrene 24-well plates. Bacteria were cultured at 37° C. for 12 hours, after which biofilms were washed with PBS to eliminate planktonic bacteria and were exposed to TSB with indicated concentrations of ALAFAC and/or antibiotics for 24 hours at 37° C. Biofilms were then washed in PBS, sonicated and detached by scraping the surface in the presence of 100 μL PBS followed by a rinse with 100 μL PBS. Collected cells were vortexed twice for 20 seconds at high speed and the dispersed biofilm cells were first observed by microscopy to ensure proper dispersion and then diluted in a 10-fold dilution series where 100 μl of each dilution was plated on blood agar plates to determine viable CFUs per ml after overnight growth at 37° C. Colony counts from plates carrying 20-200 colonies were used to determine the viable counts and are reported as the total number of colony-forming units per biofilm.

In the case of `N=C(N)NC(=O)c1nc(Cl)c(N)nc1N` [Amiloride], the “Effect of inhibitor on ALAFAC-associated membrane depolarization” value (NRS 123 Staphylococci) is reported as “completely abolished”, the “Transmembrane proton gradient (intracellular pH)” value (NRS 384 Staphylococci) is reported as “did not fully inhibit” and the “Effect of inhibitor on ALAFAC antibiotic potentiation in MIC assay” value (Staphylococcus aureus [1]; NRS 123, methicillin + ALAFAC, Ruthenium Red 30 μM, Amiloride 1 mM) is reported as “completely abolished”.
With `CC[C@H]1OC(=O)[C@H](C)[C@@H](O[C@H]2C[C@@](C)(OC)[C@@H](O)[C@H](C)O2)[C@H](C)[C@@H](O[C@@H]2O[C@H](C)C[C@H](N(C)C)[C@H]2O)[C@](C)(O)C[C@@H](C)C(=O)[C@H](C)[C@@H](O)[C@]1(C)O` [Erythromycin, erythromycin] the Short-time killing (Streptococcus pneumoniae [2]; D39, 4 hours, ALAFAC 50 μg/ml, erythromycin 200 μg/ml, alone or combined, 7.2 log10 inoculum) was “insignificant bactericidal activity”, the Bactericidal activity alone (Streptococcus pneumoniae [2]; D39 and EF3030, 1 hour, penicillin G up to 5,000 μg/ml, erythromycin up to 1,000 μg/ml) was “lacked any bactericidal activity” and the “Minimum antibiotic concentration for bactericidal (>3 log10) activity, planktonic” value (Streptococcus pneumoniae [2]; S. pneumoniae D39) was >1,000 μg/ml. For the same compound, the “Minimum antibiotic concentration for bactericidal (>3 log10) activity, planktonic” value (Streptococcus pneumoniae [2]; S. pneumoniae JY53) was >1000 μg/ml, the MIC (Streptococcus pneumoniae [3]; S. pneumoniae D39) was 0.03 µg/mL and the MIC (Streptococcus pneumoniae [3]; S. pneumoniae JY53 (erythromycin-resistant)) was 3 µg/mL. For the same compound, the Biofilm killing ([4]; D39 48 h biofilm (8.7 log10), erythromycin 500 μg/ml alone or with 250 μg/ml ALAFAC) was “no bactericidal effects”, the “Minimum antibiotic concentration for bactericidal (>3 log10) activity on biofilms” value ([4]; S. pneumoniae D39 biofilm) was >1000 μg/ml and the “Minimum antibiotic concentration for bactericidal (>3 log10) activity on biofilms” value ([4]; S. pneumoniae JY53 biofilm) was >1000 μg/ml. For the same compound, the MBC (Staphylococcus aureus [5]; NRS123, S. aureus NRS123, antibiotic alone, read-out: MBC) was 16 µg/mL (≈ 21.8 µM), the MBC (Staphylococcus aureus [5]; NRS384, S. aureus NRS384, antibiotic alone, read-out: MBC) was > 256 µg/mL and the MIC (Staphylococcus aureus [1]; S. aureus NRS123, antibiotic alone, read-out: MIC) was 0.5 µg/mL. It also gave an MIC (Staphylococcus aureus [1]; S. aureus NRS384, antibiotic alone, read-out: MIC) of 16 µg/mL.
Work on `CN[C@H](CC(C)C)C(=O)N[C@H]1C(=O)N[C@@H](CC(N)=O)C(=O)N[C@H]2C(=O)N[C@H]3C(=O)N[C@H](C(=O)N[C@H](C(=O)O)c4cc(O)cc(O)c4-c4cc3ccc4O)[C@H](O)c3ccc(c(Cl)c3)Oc3cc2cc(c3O[C@@H]2O[C@H](CO)[C@@H](O)[C@H](O)[C@H]2O[C@H]2C[C@](C)(N)[C@H](O)[C@H](C)O2)Oc2ccc(cc2Cl)[C@H]1O` [Vancomycin, vancomycin] yielded an MBC (Staphylococcus aureus [5]; NRS1) of 32 µg/mL (≈ 22.1 µM), an MBC (Staphylococcus aureus [5]; NRS384) of 16 µg/mL (≈ 11 µM) and an MIC (Staphylococcus aureus [1]; NRS1) of 8 µg/mL. The MIC (Staphylococcus aureus [1]; NRS384) was 1 µg/mL and the Biofilm killing [6] was “almost complete insensitivity”.
In the case of `CCCCC/C=C\C/C=C\CCCCCCCC(=O)O` [linoleic acid], the “Bactericidal activity (FIG. 1)” value (Streptococcus pneumoniae [2]; S. pneumoniae D39) is reported as “considerably higher”.
In the case of `CCCCCCCC/C=C\CCCCCCCC(=O)O` [oleic acid], the “Bactericidal activity (FIG. 1)” value (Streptococcus pneumoniae [2]; S. pneumoniae D39) is reported as “considerably higher”.
